Assay results: ChEMBL document CHEMBL1201862, “PubChem BioAssay data set” (2004)
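1) Cells in 96-well plates. 2) Compound, 48 h, 5 concentrations. 3) Linear interpolation between surrounding doses. 4) Unreached endpoint = highest concentration. At the GI50, growth is halved.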 The source made the active and inactive calls. Rule as the data show it: active = GI50 up to about 1.1 µM and inactive = higher.

Tests used:
Assay in all cases: NCI anticancer screen, dose series, 48 h
NCI-H23 = tested on: NCI-H23
NCI-H460 = tested on: NCI-H460
SK-MEL-2 = tested on: SK-MEL-2
MCF7 = tested on: MCF7
SW-620 = tested on: SW-620
SK-MEL-28 = tested on: SK-MEL-28
HT-29 = tested on: HT-29
OVCAR-3 = tested on: OVCAR-3
786-0 = tested on: 786-0
KM12 = tested on: KM12
T47D = tested on: T47D
SNB-19 = tested on: SNB-19
DU-145 = tested on: DU-145
NCI/ADR-RES = tested on: NCI/ADR-RES
COLO 205 = tested on: COLO 205
A549 = tested on: A549
Malme-3M = tested on: Malme-3M
UACC-257 = tested on: UACC-257
BT-549 = tested on: BT-549
K562 = tested on: K562
SF-268 = tested on: SF-268
MDA-N = tested on: MDA-N
SN12C = tested on: SN12C
IGROV-1 = tested on: IGROV-1
CAKI-1 = tested on: CAKI-1
SK-OV-3 = tested on: SK-OV-3
CCRF-CEM = tested on: CCRF-CEM
RPMI-8226 = tested on: RPMI-8226
MDA-MB-435 = tested on: MDA-MB-435
RXF 393 = tested on: RXF 393
HL-60 = tested on: HL-60
OVCAR-8 = tested on: OVCAR-8
NCI-H226 = tested on: NCI-H226
SF-295 = tested on: SF-295
SK-MEL-5 = tested on: SK-MEL-5
EKVX = tested on: EKVX
SNB-75 = tested on: SNB-75
MOLT-4 = tested on: MOLT-4
TK-10 = tested on: TK-10
UACC-62 = tested on: UACC-62
OVCAR-4 = tested on: OVCAR-4
HCT-15 = tested on: HCT-15
HOP-92 = tested on: HOP-92
M14 = tested on: M14
ACHN = tested on: ACHN
NCI-H522 = tested on: NCI-H522
HOP-62 = tested on: HOP-62
SR = tested on: SR
A498 = tested on: A498
HCC 2998 = tested on: HCC 2998
SF-539 = tested on: SF-539
UO-31 = tested on: UO-31
PC-3 = tested on: PC-3
HCT-116 = tested on: HCT-116
U-251 = tested on: U-251
Hs-578T = tested on: Hs-578T
LOX IMVI = tested on: LOX IMVI
OVCAR-5 = tested on: OVCAR-5

CCOC(=O)Cn1nc2ccc(Nc3nc4ccccc4nc3C(=O)OCC)cc2n1
GI50 (NCI-H23): 76.6 µM (inactive) | GI50 (NCI-H460): > 100 µM (inactive) | GI50 (SK-MEL-2): 54.6 µM (inactive) | GI50 (MCF7): 76.4 µM (inactive) | GI50 (SW-620): > 100 µM (inactive) | GI50 (SK-MEL-28): > 100 µM (inactive) | GI50 (HT-29): 42 µM (inactive) | GI50 (OVCAR-3): 63.4 µM (inactive) | GI50 (786-0): 33.4 µM (inactive) | GI50 (KM12): > 100 µM (inactive) | GI50 (T47D): 37.5 µM (inactive) | GI50 (SNB-19): 34 µM (inactive) | GI50 (DU-145): > 100 µM (inactive) | GI50 (NCI/ADR-RES): 54.6 µM (inactive) | GI50 (COLO 205): > 100 µM (inactive) | GI50 (A549): > 100 µM (inactive) | GI50 (Malme-3M): 45.6 µM (inactive) | GI50 (UACC-257): > 100 µM (inactive) | GI50 (BT-549): > 100 µM (inactive) | GI50 (K562): > 100 µM (inactive) | GI50 (SF-268): 47.4 µM (inactive) | GI50 (MDA-N): > 100 µM (inactive) | GI50 (SN12C): > 100 µM (inactive) | GI50 (IGROV-1): 69.7 µM (inactive) | GI50 (CAKI-1): > 100 µM (inactive) | GI50 (SK-OV-3): 49.3 µM (inactive) | GI50 (CCRF-CEM): > 100 µM (inactive) | GI50 (RPMI-8226): > 100 µM (inactive) | GI50 (MDA-MB-435): > 100 µM (inactive) | GI50 (RXF 393): 23.6 µM (inactive) | GI50 (HL-60): > 100 µM (inactive) | GI50 (OVCAR-8): 58.2 µM (inactive) | GI50 (NCI-H226): 59.8 µM (inactive) | GI50 (SF-295): 45.1 µM (inactive) | GI50 (SK-MEL-5): > 100 µM (inactive) | GI50 (EKVX): 52 µM (inactive) | GI50 (SNB-75): 16.8 µM (inactive) | GI50 (MOLT-4): > 100 µM (inactive) | GI50 (TK-10): 38.4 µM (inactive) | GI50 (UACC-62): 66.8 µM (inactive) | GI50 (OVCAR-4): 42.8 µM (inactive) | GI50 (HCT-15): > 100 µM | GI50 (HOP-92): 31.1 µM (inactive) | GI50 (M14): > 100 µM (inactive) | GI50 (ACHN): > 100 µM (inactive) | GI50 (NCI-H522): 57 µM (inactive) | GI50 (HOP-62): 68.7 µM (inactive) | GI50 (SR): > 100 µM (inactive) | GI50 (A498): 60.1 µM (inactive) | GI50 (HCC 2998): 83 µM (inactive) | GI50 (SF-539): 23.5 µM (inactive) | GI50 (UO-31): 20.8 µM (inactive) | GI50 (PC-3): 98.4 µM (inactive) | GI50 (HCT-116): 55 µM (inactive) | GI50 (U-251): 44.4 µM (inactive) | GI50 (Hs-578T): 33.9 µM (inactive) | GI50 (LOX IMVI): > 100 µM (inactive) | GI50 (OVCAR-5): > 100 µM (inactive)
